# Columns and labels:
# MTS cytotoxicity assay = details: human
# Excerpt: The study utilized human cell lines including PC-3 (human prostate adenocarcinoma), HSF (primary human skin fibroblasts), MDA-MB-231 (estrogen-negative breast adenocarcinoma), MCF-7 (estrogen-positive breast adenocarcinoma), MSC (multipotent stem cells derived from adipose tissue), SF-539 (brain gliosarcoma), SNB-19 (glioblastoma), A-498 (kidney carcinoma), M-14 (human melanoma), NCI-H322-M (primary bronchioalveolar carcinoma), HCT-15 (colon adenocarcinoma), and HCT-116 (colorectal intestinal carcinoma). We also used immortalized C2C12 mouse myoblasts (ATCC—CRL-1772). Cancer cell lines were obtained from the ATCC collection and generously provided by the Fox Chase Cancer Center (Philadelphia, USA). Conditionally normal cells, including skin fibroblasts and multipotent stem cells, were isolated by our group from postoperative materials (skin and subcutaneous fat) obtained from a conditionally healthy donor. Reagents and consumables for cell culture work were purchased from PanEco (Russia).
# The cytotoxicity of the compounds under study was assessed using MTS assay on cell cultures. Cells were seeded into 96-well plates at a concentration of 10,000–20,000 cells/mL. […] After 2 h of incubation, the resulting water-soluble formazan was measured using the TECAN Infinite M200 Pro microplate reader at wavelengths of 555/750 nm. […]
# Colony formation assay = assay type: cell-based, mouse; details: mouse, C2C12 cells, 100 μM, read-out: C2C12 cells remaining viable
# Method: (§1) Cells were cultured in a 24-well plate with 1 mL of DMEM nutrient medium for 24 h. […] The experiment was conducted in triplicate and in two or three independent repetitions. Only solvent was added to the control wells instead of the test compounds. Incubation with the drugs continued for three days, after which the grown colonies were washed with cold PBS solution and fixed in a fixing buffer (10% acetic acid, 10% methanol in distilled water) for 15 min. The colonies were stained with a 0.4% solution of crystal violet in 20% ethanol for 30 min and then washed 3 times with dH2O and analyzed under a microscope. The colonies were then dissolved in 10% acetic acid for 40 min on a shaker, and the absorbance of the lysate was read at 590 nm. Results were expressed as a percentage relative to the control, and a dose–response curve was plotted to determine the IC50 value.
# C2C12 = assay: Colony formation assay; assay type: cell-based, mouse; details: Mus musculus, C2C12, 72 h, incubation three days, read-out: Inhibitory concentration IC50, C2C12
# Method: as §1
# MCF-7 cells [1] = assay: Comet assay; assay type: cell-based, human; design: Tail Length: unit not given here; details: for Olive Moment / Tail Area / Tail DNA % / Tail Intensity / Tail Length / Tail Moment: 3 days
# MCF-7 cells [2] = assay: Apoptosis induction, Annexin V-FITC/DAPI flow cytometry; assay type: cell-based, human
# Method: MCF-7 cells were seeded at a concentration of 15,000 cells/mL in a 6-well plate. Then, 24 h later the cells were treated with different concentrations of DOX-2 for 72 h. The nutrient medium over cells containing the floating cells was collected into tubes, and then the adherent cells were trypsinized and added to the fraction of floating cells. Then, cells were washed, placed in a binding buffer, stained with Annexin V-FITC/DAPI, and analyzed using the flow cytofluorimeter BD FACSCalibur™ (BD Biosciences, Franklin Lakes, NJ, USA). A total of 1% Triton X-100 was used as a control apoptosis inducer.
# MCF-7 [3] = assay: Mitochondrial membrane potential, rhodamine 123 flow cytometry; assay type: cell-based, human; details: MCF-7, 72 h, concentration corresponding to IC60
# Method: Cells were seeded in a 12-well plate at a density of 1 × 10^5 cells/well and incubated for 24 h at 37 °C in a humid atmosphere with 5% CO2 prior to treatment. Cells were bathed in complete DMEM media containing the respective compounds, using a solvent (dH2O/DMSO) as a negative control. After 72 h, the nutrient medium over cells containing the floating cells was collected into tubes, and then the adherent cells were trypsinized and added to the fraction of floating cells. Cell suspensions were then centrifuged, and the pellet was suspended in phosphate-buffered saline (PBS) to a final density of 5 × 10^5 cells/mL. Cell suspension in a volume of 250 μL and 500 nM rhodamine 123 were added to a rounded-well plate, followed by incubation for 30 min at 25° C. Measurements were conducted using flow cytometry on the Millipore Guava EasyCyte HT Flow Cytometer System in a green fluorescent channel.
# [4] = MTS cytotoxicity assay, statements over the cell panel; assay type: cell-based; details: human, tumor and conditionally normal cells; MTS dose–response curves, high concentrations; read-out: Viable cells remaining
# Method: The cytotoxicity of the compounds under study was assessed using MTS assay on cell cultures. Cells were seeded into 96-well plates at a concentration of 10,000–20,000 cells/mL. After 24 h, gradient concentrations of the compounds were added to the culture medium and the plates were incubated for 72 h. Subsequently, the culture medium was replaced with MTS reagents (Sigma-Aldrich, Burlington, MA, USA) (MTS:PMS (0.18:0.0092 mg/mL)) and dissolved in phenol-free RPMI 1640 medium. After 2 h of incubation, the resulting water-soluble formazan was measured using the TECAN Infinite M200 Pro microplate reader at wavelengths of 555/750 nm. As a control, equivalent volumes of the solvents in which each compound was dissolved (dH2O/DMSO) were used. To calculate the percentage of viable cells relative to the control, which was considered 100%, dose-response curves were plotted against the logarithm of the compound concentration. The concentration of the compound at which cell growth is inhibited by 50% relative to the control was taken as the inhibitory concentration IC50 and calculated using Origin Pro software 8.0.1. The study was conducted in triplicates and in three independent repetitions.
# MCF-7 [5] = assay: Proliferation by impedance biosensor (RTCA DP Analyzer); assay type: cell-based; details: Homo sapiens, MCF7, 72 h, incubation three days, read-out: IC50 inhibitory concentration, MCF-7
structure (smiles),measurement,setting,value
"COc1cccc2c1C(=O)c1c(O)c3c(c(O)c1C2=O)CC(O)(C(=O)CO)CC3OC1CC(NC(=O)/C=C/c2cnc(C)c3c2COC(C)(C)O3)C(O)C(C)O1 (stereo not shown) [DOX-2, (E)-N-(3-hydroxy-2-methyl-6-((3,5,12-trihydroxy-3-(2-hydroxyacetyl)-10-methoxy-6,11-dioxo-1,2,3,4,6,11-hexahydrotetracen-1-yl)oxy)tetrahydro-2H-pyran-4-yl)-3-(2,2,8-trimethyl-4H-[1,3]dioxino[4,5-c]pyridin-5-yl)acrylamide]",IC50 at 72 h,MTS cytotoxicity assay,> 200 µM
same,"viability at 3 days, 100 µM",Colony formation assay,30%
same,IC50,C2C12,0.81 ± 0.07 µM
same,Olive Moment,"MCF-7 cells [1]; MCF-7, 5 µM (IC30)",0.73
same,Tail Area,"MCF-7 cells [1]; MCF-7, 5 µM (IC30)",1254
same,Tail DNA %,"MCF-7 cells [1]; MCF-7, 5 µM (IC30)",1.3%
same,Tail Intensity,"MCF-7 cells [1]; MCF-7, 5 µM (IC30)",10
same,Tail Length,"MCF-7 cells [1]; MCF-7, 5 µM (IC30)",4.9
same,Tail Moment,"MCF-7 cells [1]; MCF-7, 5 µM (IC30)",0.14
same,Olive Moment,"MCF-7 cells [1]; MCF-7, 10 µM (IC60)",1.42
same,Tail Area,"MCF-7 cells [1]; MCF-7, 10 µM (IC60)",637
same,Tail DNA %,"MCF-7 cells [1]; MCF-7, 10 µM (IC60)",5.1%
same,Tail Intensity,"MCF-7 cells [1]; MCF-7, 10 µM (IC60)",21
same,Tail Length,"MCF-7 cells [1]; MCF-7, 10 µM (IC60)",1.5
same,Tail Moment,"MCF-7 cells [1]; MCF-7, 10 µM (IC60)",0.21
same,Olive Moment,"MCF-7 cells [1]; MCF-7, 20 µM (IC70)",1.01
same,Tail Area,"MCF-7 cells [1]; MCF-7, 20 µM (IC70)",876
same,Tail DNA %,"MCF-7 cells [1]; MCF-7, 20 µM (IC70)",1.9%
same,Tail Intensity,"MCF-7 cells [1]; MCF-7, 20 µM (IC70)",20
same,Tail Length,"MCF-7 cells [1]; MCF-7, 20 µM (IC70)",5.8
same,Tail Moment,"MCF-7 cells [1]; MCF-7, 20 µM (IC70)",0.25
same,DNA breaks in the Comet assay (in words),"MCF-7 cells [1]; MCF-7, 72 h",do not cause DNA breaks
same,Percentage of cells in early and late apoptosis,"MCF-7 cells [2]; MCF-7, 72 h, IC20–IC60 concentrations",up to 25%
same,Accumulation of necrotic cells (in words),"MCF-7 cells [2]; MCF-7, concentration corresponding to IC60",no accumulation of necrotic cells
same,Cells with reduced mitochondrial potential,MCF-7 [3],up to 27%
same,viability at 72 h,[4],20 to 40%
same,IC50,MCF-7 [5],8.21 ± 2.93 µM
"COc1cccc2c1C(=O)c1c(O)c3c(c(O)c1C2=O)C[C@@](O)(C(=O)CO)C[C@@H]3O[C@H]1C[C@H](N)[C@H](O)[C@H](C)O1 [DOX, Doxorubicin, reference compound]",IC50 at 72 h,MTS cytotoxicity assay; MSC multipotent stem cells derived from adipose tissue,1.1 ± 0.65 µM

# — publication PMC10970924 (Life, 2024)
